Tests used:
[1] = human, in vivo
Procedure: Intracellular concentrations were normalised to tissue protein concentrations. dFdCTP=2′,2′-difluoro-2′-deoxycytidine; PBMCs=Peripheral Blood Mononuclear Cells.
6 ml of blood was collected using heparinised blood collection tubes. After centrifugation and separation of plasma, buffycoat was collected and transferred to new test tube containing 3 ml of Lymphoprep density gradient. After centrifugation, the upper interface containing the PBMC layer was transferred to new test tube. After washing with phosphate buffered saline (PBS), PBMCs were re-suspended in 100 μl PBS. Then, another 100 μl of 0.8 M PCA was added and the mixture was vortex mixed and centrifuged followed by transfer of 100 μl supernatant to new test tube. The PCA extracts were stored at −80° C. until time of analysis.
PCA extracts were buffered using 50 μl of 1M NH4Ac, then neutralised using 20 μl of 10% ammonia solution. Finally, 5 μl containing the internal standard 8-ChloroATP and 5 μl deionised water were then added. The extracts were transferred to LC-MS vials and 10 μl were injected into the UPLC-MS/MS system.
10 mg/mL stock solution of the analyte was prepared and aliquot frozen at −80° C. until use. The analyte was resolved using an ultra-performance liquid chromatography system (Accela UPLC, Thermo Scientific, UK) equipped with a Biobasic AX, 5 μm, 50×2.1 mm column (Thermo Electron Corporation, Murrieta, Calif., USA) and a mobile phase consisting of a mixture of 10 mM NH4Ac in ACN/H2O (30:70 v/v), pH 6.0 (A), and 1 mM NH4Ac in ACN/H2O (30:70 v/v), pH 10.5 (B). The mobile phase gradient was employed, comprising: buffer A=95% at 0-0.5 min, from 95 to 0% over 1.25 minutes, held at 0% for 1.75 minute, from 0 to 95% over 0.1 minutes, ending with 95% for 2.9 minutes, all at a flow rate of 500 μl/min.
Eluting compounds of interest were detected using a triple stage quadrupole Vantage mass spectrometry system (Thermo Scientific, UK) equipped with an electrospray ion source. Samples were analyzed in the Multiple Reaction Monitoring (MRM), positive (+ve) and negative (−ve) ion modes at a spray voltage of 3500 and 3000 V, respectively. Nitrogen was used as sheath and auxiliary gases at a flow rate of 50 and 20 arbitrary units, respectively. Argon was used as collision gas with pressure of 1.5 mTorr.
The combination regimen NUC-1031 with carboplatin was administered to 10 patients with ovarian cancer as part of the Phase Ib study PRO-002.

[2] = tested on: platinum sensitive recurrent ovarian cancer; conditions: cited from earlier work

Apparent t1/2 (intracellular dFdCTP) ([1]; female)	Clearance ([1]; female)	Tmax (intracellular dFdCTP) ([1]; female)	Cmax intracellular dFdCTP levels relative to gemcitabine in combination with carboplatin [1]	intracellular dFdCTP Cmax concentrations relative to gemcitabine [1]	Compound	levels of the toxic metabolite normally associated with gemcitabine [1]	response rate ([2]; P=0.0016)	median PFS ([2]; median follow-up 17 months, carboplatin AUC5 alone or AUC4 day 1 plus gemcitabine 1000 mg/m^2 days 1 & 8 every 3 weeks)
9.6 h	3.9 L/h	1 h	4 fold	around 10 ×	C[C@H](NP(=O)(OC[C@H]1O[C@@H](n2ccc(N)nc2=O)C(F)(F)[C@@H]1O)Oc1ccccc1)C(=O)OCc1ccccc1 (stereo partly drawn) [NUC-1031, 2′-Deoxy-2′,2′-difluoro-D-cytidine-5′-O-[phenyl (benzoxy-L-alaninyl)] phosphate]	less than half		
					N.N.O=C([O-])C1(C(=O)[O-])CCC1.[Pt+2] [carboplatin]		30.9%	5.8 months

From patent US10660912B2, “Combination therapy for cancer” (NuCana plc, priority 2015, dated 2020)
